Experimental data published in PubChem BioAssay (NCI).
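Where inhibition never reached the appropriate level, the endpoint shown equals the highest concentration tested. Otherwise, values were interpolated linearly from a five-concentration, 48-hour dose response in 96-well plates. GI50: concentration for 50% inhibition of growth. TGI is the concentration that stops growth completely.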

Columns and labels:
Experiment in all cases: NCI tumour cell line growth inhibition, 48 h
[1] = test system: SR leukemia
[2] = test system: SW-620 colon
[3] = test system: HCT-116 colon
[4] = test system: SF-539 CNS
[5] = test system: SNB-19 CNS
[6] = test system: BT-549 breast
[7] = test system: UACC-62 melanoma
[8] = test system: NCI-H460 lung
[9] = test system: OVCAR-5 ovarian
[10] = test system: A549 NSCLC
[11] = test system: MALME-3M melanoma
[12] = test system: IGROV1 ovarian
[13] = test system: HOP-92 NSCLC
[14] = test system: CCRF-CEM leukemia
[15] = test system: HOP-62 NSCLC
[16] = test system: PC-3 prostate
[17] = test system: ACHN renal
[18] = test system: SF-268 CNS
[19] = test system: K-562 leukemia
[20] = test system: SNB-75 CNS
[21] = test system: MDA-N
[22] = test system: NCI/ADR-RES ovarian
[23] = test system: HL-60(TB) leukemia
[24] = test system: SK-MEL-2 melanoma
[25] = test system: OVCAR-3 ovarian
[26] = test system: NCI-H522 lung
[27] = test system: MOLT-4 leukemia
[28] = test system: DU-145 prostate
[29] = test system: MCF7 breast
[30] = test system: EKVX NSCLC
[31] = test system: RPMI-8226 leukemia
[32] = test system: UACC-257 melanoma
[33] = test system: NCI-H23 lung
[34] = test system: UO-31 renal
[35] = test system: SF-295 CNS
[36] = test system: RXF 393 renal
[37] = test system: SK-MEL-28 melanoma
[38] = test system: OVCAR-8 ovarian
[39] = test system: COLO 205 colon
[40] = test system: HCC-2998 colon
[41] = test system: M14 melanoma
[42] = test system: 786-0 renal
[43] = test system: SK-MEL-5 melanoma
[44] = test system: OVCAR-4 ovarian
[45] = test system: TK-10 renal
[46] = test system: U251 CNS
[47] = test system: SN12C renal
[48] = test system: HT29 colon
[49] = test system: NCI-H226 lung
[50] = test system: SK-OV-3 ovarian
[51] = test system: CAKI-1 renal
[52] = test system: HCT-15 colon
[53] = test system: KM12 colon
[54] = test system: MDA-MB-435
[55] = test system: MDA-MB-231 breast
[56] = test system: A498 renal
[57] = test system: LOX IMVI melanoma
[58] = test system: T-47D breast
[59] = test system: HS 578T breast

CN(C)CCCNC(=O)c1c(-c2cccnc2)cnc2ccccc12
TGI [1]: > 100 µM
TGI [2]: > 100 µM
TGI [3]: > 100 µM
TGI [4]: > 100 µM
TGI [5]: > 100 µM
TGI [6]: > 100 µM
TGI [7]: > 100 µM
TGI [8]: > 100 µM
TGI [9]: > 100 µM
TGI [10]: > 100 µM
TGI [11]: > 100 µM
TGI [12]: > 100 µM
TGI [13]: > 100 µM
TGI [14]: > 100 µM
TGI [15]: > 100 µM
TGI [16]: > 100 µM
TGI [17]: > 100 µM
TGI [18]: > 100 µM
TGI [19]: > 100 µM
TGI [20]: > 100 µM
TGI [21]: > 100 µM
TGI [22]: > 100 µM
TGI [23]: > 100 µM
TGI [24]: > 100 µM
TGI [25]: > 100 µM
TGI [26]: > 100 µM
TGI [27]: > 100 µM
TGI [28]: > 100 µM
TGI [29]: > 100 µM
TGI [30]: > 100 µM
TGI [31]: > 100 µM
TGI [32]: > 100 µM
TGI [33]: > 100 µM
TGI [34]: > 100 µM
TGI [35]: > 100 µM
TGI [36]: > 100 µM
TGI [37]: > 100 µM
TGI [38]: > 100 µM
TGI [39]: > 100 µM
TGI [40]: > 100 µM
TGI [41]: > 100 µM
TGI [42]: > 100 µM
TGI [43]: > 100 µM
TGI [44]: > 100 µM
TGI [45]: > 100 µM
TGI [46]: > 100 µM
TGI [47]: > 100 µM
TGI [48]: > 100 µM
TGI [49]: > 100 µM
TGI [50]: > 100 µM
TGI [51]: > 100 µM
TGI [52]: > 100 µM

CC(C)CC(NC(=O)C(CSc1ccc([N+](=O)[O-])cc1)Cc1ccccc1)C(=O)Nc1ccccc1 (stereo unspecified)
TGI [53]: > 100 µM
TGI [1]: > 100 µM
TGI [2]: > 100 µM
TGI [3]: > 100 µM
TGI [4]: > 100 µM
TGI [5]: > 100 µM
TGI [6]: 59.5 µM
TGI [7]: > 100 µM
TGI [8]: > 100 µM
TGI [54]: > 100 µM
TGI [9]: > 100 µM
TGI [10]: > 100 µM
TGI [11]: 80.5 µM
TGI [12]: > 100 µM
TGI [13]: > 100 µM
TGI [14]: > 100 µM
TGI [16]: > 100 µM
TGI [17]: > 100 µM
TGI [19]: > 100 µM
TGI [20]: 65.1 µM
TGI [21]: > 100 µM
TGI [22]: > 100 µM
TGI [23]: > 100 µM
TGI [24]: > 100 µM
TGI [25]: > 100 µM
TGI [26]: > 100 µM
TGI [55]: > 100 µM
TGI [27]: > 100 µM
TGI [28]: > 100 µM
TGI [29]: > 100 µM
TGI [30]: > 100 µM
TGI [31]: > 100 µM
TGI [32]: > 100 µM
TGI [56]: > 100 µM
TGI [33]: > 100 µM
TGI [34]: > 100 µM
TGI [35]: > 100 µM
TGI [36]: > 100 µM
TGI [37]: > 100 µM
TGI [38]: > 100 µM
TGI [39]: > 100 µM
TGI [40]: > 100 µM
TGI [57]: > 100 µM
TGI [41]: > 100 µM
TGI [42]: > 100 µM
TGI [43]: > 100 µM
TGI [44]: > 100 µM
TGI [45]: > 100 µM
TGI [46]: > 100 µM
TGI [47]: > 100 µM
TGI [50]: > 100 µM
TGI [51]: > 100 µM
TGI [52]: > 100 µM

c1ccc2nc3c(cc2c1)Sc1cc2ccccc2[n+]2c1N3CC2
GI50 [53]: 11 µM
TGI [53]: 40.3 µM
GI50 [1]: 13.5 µM
TGI [1]: > 100 µM
GI50 [2]: 32.5 µM
TGI [2]: > 100 µM
GI50 [3]: 30.8 µM
TGI [3]: > 100 µM
GI50 [4]: 35.9 µM
TGI [4]: > 100 µM
GI50 [5]: 19.7 µM
TGI [5]: 91.9 µM
GI50 [6]: 19.1 µM
TGI [6]: > 100 µM
GI50 [7]: 13.5 µM
TGI [7]: 28.8 µM
GI50 [8]: 20.3 µM
TGI [8]: 63.9 µM
GI50 [54]: 21.1 µM
TGI [54]: 65.7 µM
GI50 [9]: > 100 µM
TGI [9]: > 100 µM
GI50 [10]: 11.9 µM
TGI [10]: > 100 µM
GI50 [11]: 4.17 µM
TGI [11]: 23.3 µM
GI50 [12]: 22.8 µM
TGI [12]: > 100 µM
GI50 [13]: 27.9 µM
TGI [13]: > 100 µM
GI50 [14]: 26.8 µM
TGI [14]: > 100 µM
GI50 [15]: 20.8 µM
TGI [15]: 78.1 µM
GI50 [58]: 15 µM
TGI [58]: 64.9 µM
GI50 [16]: 27.4 µM
TGI [16]: > 100 µM
GI50 [17]: > 100 µM
TGI [17]: > 100 µM
GI50 [18]: 23.6 µM
TGI [18]: > 100 µM
GI50 [19]: 14 µM
TGI [19]: > 100 µM
GI50 [20]: 26.9 µM
TGI [20]: > 100 µM
GI50 [22]: > 100 µM
TGI [22]: > 100 µM
GI50 [23]: 32.5 µM
TGI [23]: > 100 µM
GI50 [24]: 17.6 µM
TGI [24]: 43.9 µM
GI50 [59]: 18.3 µM
TGI [59]: 85.1 µM
GI50 [25]: 21.2 µM
TGI [25]: > 100 µM
GI50 [26]: 26.7 µM
TGI [26]: > 100 µM
GI50 [55]: 31.6 µM
TGI [55]: > 100 µM
GI50 [27]: 22.1 µM
TGI [27]: > 100 µM
GI50 [28]: 53.9 µM
TGI [28]: > 100 µM
GI50 [29]: 8.67 µM
TGI [29]: > 100 µM
GI50 [30]: 21 µM
TGI [30]: > 100 µM
GI50 [31]: 15.6 µM
TGI [31]: > 100 µM
GI50 [32]: 11.6 µM
TGI [32]: 34.8 µM
GI50 [56]: 34.1 µM
TGI [56]: > 100 µM
GI50 [33]: 21.9 µM
TGI [33]: > 100 µM
GI50 [34]: > 100 µM
TGI [34]: > 100 µM
GI50 [35]: 65.7 µM
TGI [35]: > 100 µM
GI50 [36]: 13.7 µM
TGI [36]: 54.9 µM
GI50 [37]: 20.8 µM
TGI [37]: 83.9 µM
GI50 [38]: 25.3 µM
TGI [38]: > 100 µM
GI50 [39]: 3.57 µM
TGI [39]: 25.5 µM
GI50 [40]: 18.5 µM
TGI [40]: 64.3 µM
GI50 [57]: 41.3 µM
TGI [57]: > 100 µM
GI50 [41]: 16.2 µM
TGI [41]: 45 µM
GI50 [42]: 43 µM
TGI [42]: > 100 µM
GI50 [43]: 3.66 µM
TGI [43]: 20 µM
GI50 [44]: 24.7 µM
TGI [44]: > 100 µM
GI50 [45]: 36.4 µM
TGI [45]: > 100 µM
GI50 [46]: 24 µM
TGI [46]: > 100 µM
GI50 [47]: 21.5 µM
TGI [47]: > 100 µM
GI50 [48]: 33.8 µM
TGI [48]: > 100 µM
GI50 [49]: 45 µM
TGI [49]: > 100 µM
GI50 [50]: > 100 µM
TGI [50]: > 100 µM
GI50 [51]: 64.5 µM
TGI [51]: > 100 µM
GI50 [52]: > 100 µM
TGI [52]: > 100 µM

CN(C)CCOc1ccc2[nH]c(C(=O)N3CC(CCl)c4c3cc(NC(=O)OCc3ccc([N+](=O)[O-])cc3)c3ccccc43)cc2c1 (stereo unspecified)
TGI [2]: 2.61 µM
TGI [3]: 2.17 µM
TGI [4]: 2.99 µM
TGI [7]: 5.36 µM
TGI [8]: > 100 µM
TGI [9]: 2.95 µM
TGI [10]: 2.52 µM
TGI [11]: 2.86 µM
TGI [21]: 2.86 µM
TGI [55]: 3.23 µM
TGI [28]: 1.9 µM
TGI [30]: 3.14 µM
TGI [32]: > 100 µM
TGI [34]: 2.56 µM
TGI [37]: 3.06 µM
TGI [39]: 3.29 µM
TGI [40]: > 100 µM
TGI [41]: 2.88 µM
TGI [42]: 2.09 µM
TGI [43]: 2.76 µM
TGI [45]: > 100 µM
TGI [46]: > 100 µM
TGI [47]: 2.95 µM
TGI [49]: 3.72 µM
TGI [52]: 3.58 µM
